Test results from patent US20160128339A1, “CHROMOBACTERIUM FORMULATIONS, COMPOSITIONS, METABLOITES AND THEIR USES” (priority 2011, published 2016).

Columns and labels:
TSSM = TSSM control on field strawberry transplants; assay type: in vivo, Tetranychus urticae; settings: rate/acre: abamectin 16 fl. oz., bifenzate 1 lb + INDUCE, COHERE 16 fl. oz., spiromesifin 12 fl. oz. + INDUCE, fenpyroximate 32 fl. oz., hexythiazox 6 oz.; for Number of eggs TSSM/leaflet day 90 / Number of motile TSSM/leaflet day 90: before first spray
Description: The efficacy of five traditional compounds and MBI-203 ingredients were evaluated for TSSM control on field strawberry transplants at the Florida Gulf Coast Research and Education Center. Seedlings were transplanted in the Field (day 0), Each 12.5-ft. plot consisted of 20 plants. Plots were infested four times from day 55 through day 71 with 10 to 20 motile TSSM per plant. Seventeen treatments of various rates and schedules of application of miticides, some combined with an adjuvant, and a non-treated check were replicated four times in a RCB design. Treatments were applied using a hand held sprayer with a spray wand outfitted with a nozzle containing a 45-degree core and a number four disc. The sprayer was pressurized by CO2, to 40 psi, and calibrated to deliver 100 gal per acre. Samples were collected weekly from day 90 before first spray through 2 wks after the last application of treatments (day 154). Samples consisted of ten randomly selected leaflets per plot and were collected from the middle one-third stratum of the plants. Motile and egg TSSM were brushed from the leaflets onto rotating sticky discs and counted. No phytotoxicity was observed.

[1] = test system: green peach aphid (GPA) adults; assay: Green peach aphid progeny production on treated pepper leaf discs; assay type: in vivo, Myzus persicae; settings: 1.0 μg/mL in acetone, 100 μL per leaf disc; 3 days
Description: MBI-203 at 3% v/v concentration was tested to determine the effect of the compound on the progeny production of green peach aphid (GPA) adults. Bioassays were performed by iteming pepper leaf discs with MBI-203 at 3% v/v. Pepper leaf discs (from 3-4 week old pepper plants) were cut in circles using a 23 mm cookie cutter, selecting a flat portion of tbe leaf to make sure the disc can be evenly laid flat on the agar plate. A 1% agar solution was melted by heating and 30 μL, poured in each petri plate (16 mm×35 mm vented, polystyrene petri plates), just enough to cover the bottom of the plate to prop leaf discs and maintain humidity. The agar was allowed to solidify by cooling at room temperature. Leaf disc treatment was performed by pouring the treatment solution into a glass petri dish. With the solution in the dish, leaf discs were treated by soaking, gently swirling the dish to completely soak and coat the leaf discs. Treatment of leaf discs by soaking was done for 1 minute. […] Progeny (early nymphal instars) were counted 3 days after adult exposure to treated leaf discs. […]
Two concentrations of pare violacein compound in acetone, 0.5 μg/mL and 1.0 μg/mL were used in the test to determine the effect of the compound on the progeny production of green peach aphid (GPA) adults. […] Progeny (early nymphal instars) were counted 3 days after adult exposure to treated leaf discs. […]

[2] = test system: Green Peach Aphid adults (GPA); assay: Green peach aphid choice repellency bioassay of extracts, fractions and pure compound; assay type: in vivo, Myzus persicae; settings: violacein purified from F9 and F10
Description: Choice bioassays on Green Peach Aphid adults (GPA) were done using MBI-203 fractions and pure compound. Fractions and pure compound (violacein) obtained from the extraction of cell paste of C. substugae (MBI-203) were tested for insect efficacy through repellency bioassays. Pepper leaf discs (from 3-4 week old pepper plants) were cut in circles using a 23 mm cookie cutter, selecting a flat portion of the leaf to make sure the leaf disc can be evenly laid flat into the agar plate after treatment of the compound. One percent (%) agar in water was prepared. The 1% agar solution was melted by heating and poured into the 145 mm×20 mm petri plate, enough to cover the bottom surface of the plate to prop leaf discs and maintain humidity. The agar was allowed to solidify by cooling at room temperature.
Leaf disc treatment was done by pipetting gently 100 μL of MBI-203 extract unto the underside of the leaf disc. Treated leaf discs were then allowed to dry off by laying the disc flat unto a labeled 12-well plate cover. […]
All tests were done in three replications. […] Data for repellency of adults and nymphs was determined 24 hours post exposure of adults on treated leaf discs. The number of aphids (adults and nymphs) was counted and data recorded and analyzed, The percent repellency was computed as: % Repellency=100-{([N+A]“on petri dish”)/[N+A]“on petri dish” X100}, […]

M. hapla nematodes = assay: In vitro 96-well nematode immobility bioassay; assay type: in vivo; settings: M. hapla J2; 100 μl of 4 mg/ml sample; 24 hour at 25° C.
Description: The fractions and pure compounds were dissolved in Dimethylsulfoxide (DMSO) and were tested in an in vitro 96-well plastic cell-culture plate bioassay. Around 15-20 nematodes in a 50 μl water solution were exposed to 100 μl of a 4 mg/ml of sample for a 24 hour period at 25° C. Once the incubation period was completed, results were recorded based on a visual grading of immobility of the juvenile nematodes (J2°s) in each well treated with sampler; each treatment was tested in well repetitions of four. […] Three controls were included in each trial; 1 positive (1% Avid) & 2 negative (DMSO & water). Both trials (T1) and (T2) were carried out using M. hapla nematodes.

COc1ccc(-c2ccccc2)cc1NNC(=O)OC(C)C [Bifenzate]
Number of eggs TSSM/leaflet day 90 (TSSM): 3.8
Number of motile TSSM/leaflet day 90 (TSSM): 3.8
Number of eggs TSSM/leaflet day 98 (TSSM): 6.0
Number of eggs TSSM/leaflet day 105 (TSSM): 6.0
Number of eggs TSSM/leaflet day 111 (TSSM): 0.8
Number of eggs TSSM/leaflet day 118 (TSSM): 8.3
Number of eggs TSSM/leaflet day 125 (TSSM): 20.5
Number of eggs TSSM/leaflet day 132 (TSSM): 3.01
Number of eggs TSSM/leaflet day 139 (TSSM): 28.0
Number of eggs TSSM/leaflet day 146 (TSSM): 66.5
Number of eggs TSSM/leaflet day 154 (TSSM): 128.3
Number of motile TSSM/leaflet day 98 (TSSM): 6.0
Number of motile TSSM/leaflet day 105 (TSSM): 6.0
Number of motile TSSM/leaflet day 111 (TSSM): 0.8
Number of motile TSSM/leaflet day 118 (TSSM): 8.3
Number of motile TSSM/leaflet day 125 (TSSM): 20.5
Number of motile TSSM/leaflet day 132 (TSSM): 3.0
Number of motile TSSM/leaflet day 139 (TSSM): 28.0
Number of motile TSSM/leaflet day 146 (TSSM): 66.5
Number of motile TSSM/leaflet day 154 (TSSM): 128.3

Cc1nn(C)c(Oc2ccccc2)c1C=NOCc1ccc(C(=O)OC(C)(C)C)cc1 [Fenpyroximate]
Number of eggs TSSM/leaflet day 90 (TSSM): 9.3
Number of motile TSSM/leaflet day 90 (TSSM): 4.5
Number of eggs TSSM/leaflet day 98 (TSSM): 11.8
Number of eggs TSSM/leaflet day 105 (TSSM): 12.3
Number of eggs TSSM/leaflet day 111 (TSSM): 12.5
Number of eggs TSSM/leaflet day 118 (TSSM): 1.0
Number of eggs TSSM/leaflet day 125 (TSSM): 34.5
Number of eggs TSSM/leaflet day 132 (TSSM): 20.8
Number of eggs TSSM/leaflet day 139 (TSSM): 28.5
Number of eggs TSSM/leaflet day 146 (TSSM): 97.3
Number of eggs TSSM/leaflet day 154 (TSSM): 240.8
Number of motile TSSM/leaflet day 98 (TSSM): 3.8
Number of motile TSSM/leaflet day 105 (TSSM): 6.5
Number of motile TSSM/leaflet day 111 (TSSM): 2.8
Number of motile TSSM/leaflet day 118 (TSSM): 2.0
Number of motile TSSM/leaflet day 125 (TSSM): 7.3
Number of motile TSSM/leaflet day 132 (TSSM): 5.3
Number of motile TSSM/leaflet day 139 (TSSM): 10.0
Number of motile TSSM/leaflet day 146 (TSSM): 34.3
Number of motile TSSM/leaflet day 154 (TSSM): 145.3

C[C@@H]1[C@@H](c2ccc(Cl)cc2)SC(=O)N1C(=O)NC1CCCCC1 [Hexythiazox]
Number of eggs TSSM/leaflet day 90 (TSSM): 2.0
Number of motile TSSM/leaflet day 90 (TSSM): 2.0
Number of eggs TSSM/leaflet day 98 (TSSM): 8.5
Number of eggs TSSM/leaflet day 105 (TSSM): 15.0
Number of eggs TSSM/leaflet day 111 (TSSM): 17.0
Number of eggs TSSM/leaflet day 118 (TSSM): 22.0
Number of eggs TSSM/leaflet day 125 (TSSM): 71.5
Number of eggs TSSM/leaflet day 132 (TSSM): 128.5
Number of eggs TSSM/leaflet day 139 (TSSM): 281.5
Number of eggs TSSM/leaflet day 146 (TSSM): 393.5
Number of eggs TSSM/leaflet day 154 (TSSM): 533.0
Number of motile TSSM/leaflet day 98 (TSSM): 1.8
Number of motile TSSM/leaflet day 105 (TSSM): 2.8
Number of motile TSSM/leaflet day 111 (TSSM): 6.0
Number of motile TSSM/leaflet day 118 (TSSM): 13.8
Number of motile TSSM/leaflet day 125 (TSSM): 23.0
Number of motile TSSM/leaflet day 132 (TSSM): 57.5
Number of motile TSSM/leaflet day 139 (TSSM): 103.3
Number of motile TSSM/leaflet day 146 (TSSM): 196.0
Number of motile TSSM/leaflet day 154 (TSSM): 285.5

Cc1cc(C)c(C2=C(OC(=O)CC(C)(C)C)C3(CCCC3)OC2=O)c(C)c1 [Spiromesifin]
Number of eggs TSSM/leaflet day 90 (TSSM): 7.3
Number of motile TSSM/leaflet day 90 (TSSM): 2.8
Number of eggs TSSM/leaflet day 98 (TSSM): 5.3
Number of eggs TSSM/leaflet day 105 (TSSM): 7.3
Number of eggs TSSM/leaflet day 111 (TSSM): 5.0
Number of eggs TSSM/leaflet day 118 (TSSM): 1.5
Number of eggs TSSM/leaflet day 125 (TSSM): 2.3
Number of eggs TSSM/leaflet day 132 (TSSM): 2.8
Number of eggs TSSM/leaflet day 139 (TSSM): 0.8
Number of eggs TSSM/leaflet day 146 (TSSM): 4.5
Number of eggs TSSM/leaflet day 154 (TSSM): 25.5
Number of motile TSSM/leaflet day 98 (TSSM): 2.3
Number of motile TSSM/leaflet day 105 (TSSM): 2.0
Number of motile TSSM/leaflet day 111 (TSSM): 2.3
Number of motile TSSM/leaflet day 118 (TSSM): 0.5
Number of motile TSSM/leaflet day 125 (TSSM): 0.8
Number of motile TSSM/leaflet day 132 (TSSM): 0.5
Number of motile TSSM/leaflet day 139 (TSSM): 2.5
Number of motile TSSM/leaflet day 146 (TSSM): 2.8
Number of motile TSSM/leaflet day 154 (TSSM): 6.0

O=C1NC(c2c[nH]c3ccc(O)cc23)=C/C1=C1\C(=O)Nc2ccccc21 [violacein]
reduction of progeny production compared to the negative control [1]: about 50%
repellency [2]: 300%

Abamectin
Number of eggs TSSM/leaflet day 90 (TSSM): 6.8
Number of motile TSSM/leaflet day 90 (TSSM): 8.5
Number of eggs TSSM/leaflet day 98 (TSSM): 17.0
Number of eggs TSSM/leaflet day 105 (TSSM): 26.5
Number of eggs TSSM/leaflet day 111 (TSSM): 12.0
Number of eggs TSSM/leaflet day 118 (TSSM): 1.3
Number of eggs TSSM/leaflet day 125 (TSSM): 2.3
Number of eggs TSSM/leaflet day 132 (TSSM): 6.5
Number of eggs TSSM/leaflet day 139 (TSSM): 3.5
Number of eggs TSSM/leaflet day 146 (TSSM): 3.5
Number of eggs TSSM/leaflet day 154 (TSSM): 41.3
Number of motile TSSM/leaflet day 98 (TSSM): 4.5
Number of motile TSSM/leaflet day 105 (TSSM): 6.3
Number of motile TSSM/leaflet day 111 (TSSM): 5.3
Number of motile TSSM/leaflet day 118 (TSSM): 0.5
Number of motile TSSM/leaflet day 125 (TSSM): 0.5
Number of motile TSSM/leaflet day 132 (TSSM): 3.0
Number of motile TSSM/leaflet day 139 (TSSM): 6.3
Number of motile TSSM/leaflet day 146 (TSSM): 6.8
Number of motile TSSM/leaflet day 154 (TSSM): 15.3

Oligo-(β-hydroxybutyric acid)
immobility (M. hapla nematodes): 75%
